Test results from PMC11078216, “Discovery of potent and selective activity-based probes (ABPs) for the deubiquitinating enzyme USP30” (RSC Chemical Biology, 2024).

Columns and labels:
ALDH1B1 = molecular target: T1, ALDH1B1 (Homo sapiens, UniProt P30837); assay: ABPP chemical proteomics (LC-MS/MS) in HEK293T cells; type: cell-based
T1 construct: endogenous in cells; host or cells: HEK293T
T1 sequence (P30837 18-517): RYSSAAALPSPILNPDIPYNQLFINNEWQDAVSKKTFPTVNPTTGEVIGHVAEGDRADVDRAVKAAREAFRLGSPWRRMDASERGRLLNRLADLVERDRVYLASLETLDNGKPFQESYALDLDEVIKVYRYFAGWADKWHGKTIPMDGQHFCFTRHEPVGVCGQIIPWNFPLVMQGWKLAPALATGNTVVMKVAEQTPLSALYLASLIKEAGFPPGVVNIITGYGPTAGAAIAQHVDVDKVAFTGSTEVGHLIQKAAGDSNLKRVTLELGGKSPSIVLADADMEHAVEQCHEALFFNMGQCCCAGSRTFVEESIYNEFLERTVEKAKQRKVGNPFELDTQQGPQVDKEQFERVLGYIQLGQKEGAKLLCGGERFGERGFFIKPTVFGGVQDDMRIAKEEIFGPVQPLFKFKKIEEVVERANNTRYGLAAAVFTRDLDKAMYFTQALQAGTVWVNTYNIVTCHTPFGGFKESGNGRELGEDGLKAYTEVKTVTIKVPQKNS
Experimental: (§1) To explore the selectivity of IMP-2587 and IMP-2586 across the whole proteome, we performed quantitative activity-based protein profiling (ABPP) in HEK293T cells following treatment with IMP-2587 or IMP-2586 (Fig. 3a). After ABP incubation, cells were lysed, and probe-labelled proteins were ligated to biotinylated capture reagents.[27] […] USP30 was outcompeted by corresponding parent inhibitors for each ABP (Fig. 5b and d and Tables S3 and S5, ESI ^†), confirming the high potency and rapid engagement of IMP-2587 and IMP-2586 in cells. […] DESI1 and DESI2 are small ubiquitin-related modifier (SUMO) proteases,[3,29–32] and IMP-2587 and IMP-2586 may offer a starting point for future development of DESI ABPs. […]
(§2) d) Live cell probe incubation, lysate click chemistry and precipitation 6-well HEK293T cells were incubated with media containing compounds ABP 2 and ABP 4 at indicated concentrations for 1 h at 37 °C. The cells were washed with PBS and lysed with lysis buffer (50 μL (1% (v/v) Triton X-100, 0.1% (w/v) sodium dodecyl sulfate (SDS), EDTA-free complete protease inhibitor cocktail (1×, Roche) in PBS on ice for 10 min. The lysates were scraped and transferred to corresponding Lo-Bind Eppendorfs. Each lysate was sonicated for 1 minute, and the samples centrifuges at 5,000 x g at 4 °C for 5 minutes to pellet insoluble cellular debris. The supernatant was collected, and protein concentration was determined using the DC Protein Assay (Bio-Rad) as per manufacturer’s instructions, and normalised to lowest concentrated sample (e.g. 1 mg/mL, using lysis buffer). The following “click mixture” was prepared separately, preparing 6 μL for every 100 μL of […]
(§3) Capture reagent (AzRB/AzT for ABP 2, YnT/YnB for ABP 4 10 mM in DMSO, 1 vol; final concentration […]
(§4) CuSO4 (50 mM in water, 2 vol; final concentration in reaction 1 mM)
(§5) TCEP (50 mM in water, 2 vol; final concentration in reaction 1 mM)
(§6) TBTA (10 mM in DMSO, 1 vol; final concentration in reaction 100 µM)
(§7) The click mixture was vortexed and incubated at room temperature for 2 min before 6 μL of the mixture was added to every 100 μL of lysate. The reaction mixtures were shaken at room temperature for 1 h before being quenched with EDTA (500 mM in H2O) to a final concentration of 10 mM.
(§8) Proteins were precipitated by adding H2O (1 vol), MeOH (2 vol) and CHCl3 (0.5 vol), vortexing briefly then centrifuging at 17,000 × g for 5 min. The top H2O/MeOH layer was discarded and the middle layer of protein pellet and lower CHCl3 layer retained. The suspension was washed with MeOH (300 μL), and sonicated to break up the pellet. The proteins were pelleted by centrifugation at 10,000–17000 × g for 5–10 min or until a compact pellet was formed. The protein pellet was washed once more with MeOH (1 mL). The pellet was resuspended by sonicating and completely dissolving in 1% (w/v) SDS in PBS (to 5 mg/mL protein) before being made up to 1 mg/mL protein with PBS. […]
(§9) f) Neutravidin biotin enrichment (Affinity pull-down)
(§10) Click chemistry and precipitation steps were carried out as described in section 3.2.d, on at least 400ug of protein per sample. The pellet was resuspended by sonicating and completely dissolving in 1% (w/v) SDS in HEPES 50 mM pH 8.0, before being made up to 1 mg/mL protein with HEPES 50 mM pH 8.0 to […]
(§11) achieve a final concentration of 0.2% SDS. 20uL of each samples was collected as TL (Total lysate) samples. Pull down of biotinylated proteins was achieved by incubating samples with pre-equilibrated (3x 1 mL washes with 0.2% (w/v) SDS in HEPES 50 mM pH 8 buffer) Pierce™ NeutrAvidin™ Agarose beads for 3 hours at room temperature. NeutrAvidin™ Agarose beads were used in ratio of 1 μL bead resin per 10ug of protein sample. The beads were subsequently washed by moderate shaking for 10 seconds then briefly pelleting by table-top centrifuge then vacuum aspirating the supernatant with fine-end pipette tips (to not disturb the agarose) after collecting 20 µL supernatant as SN (supernatant […]
(§12) ) samples. […]

USP30 = molecular target: T2, USP30 (Homo sapiens, UniProt Q70CQ3); assay: as above; type: cell-based; details: for Difference (log2 fold change of enrichment): USP30; for probe concentration for detection of USP30 activity in intact cells: 10 min incubation
T2 construct: We next determined cellular engagement of endogenous USP30 with IMP-2587 or IMP-2586; endogenous in cells; host or cells: HEK293T
T2 sequence (Q70CQ3 1-517): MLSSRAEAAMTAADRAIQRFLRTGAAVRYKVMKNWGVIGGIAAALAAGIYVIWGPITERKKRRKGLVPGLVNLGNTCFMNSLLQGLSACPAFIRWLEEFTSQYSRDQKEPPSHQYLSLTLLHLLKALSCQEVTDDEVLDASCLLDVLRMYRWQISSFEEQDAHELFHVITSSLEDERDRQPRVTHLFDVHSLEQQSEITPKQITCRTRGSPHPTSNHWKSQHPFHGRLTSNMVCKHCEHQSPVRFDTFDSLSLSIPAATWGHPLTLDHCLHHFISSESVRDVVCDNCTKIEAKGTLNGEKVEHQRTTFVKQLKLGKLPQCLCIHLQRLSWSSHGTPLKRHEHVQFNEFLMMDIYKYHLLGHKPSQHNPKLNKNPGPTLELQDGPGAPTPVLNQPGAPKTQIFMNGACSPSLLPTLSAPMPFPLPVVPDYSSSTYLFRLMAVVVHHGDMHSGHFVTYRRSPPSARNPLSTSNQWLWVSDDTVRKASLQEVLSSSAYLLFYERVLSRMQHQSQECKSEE
Experimental: as §1, §2, §3, §4, §5, §6, §7, §8, §9, §10, §11, §12

[1] = compound 3 out-competition with IMP-2586 labelling, HEK293T (Table S5, Fig.5d)
[2] = IMP-2586 labelling vs DMSO, 30 nM, 10 min, HEK293T (Table S4, Fig.5c)
[3] = compound 1 out-competition with IMP-2587 labelling, HEK293T (Table S3, Fig.5b)

N#CN1CC[C@@H](NC(=O)c2cc(-c3ccccc3Oc3ccccc3)n[nH]2)C1 [compound 3, reference compound]
Difference (log2 fold change of enrichment) (ALDH1B1; [1]): -1.78 | Difference (log2 fold change of enrichment) (USP30; [1]): -4.18

C#Cc1cccc(-c2cc(NC(=O)CC3CCN(C#N)C3)on2)c1 (stereo not drawn) [IMP-2587]
Difference (log2 fold change of enrichment) (ALDH1B1; IMP-2587 labelling vs DMSO, 30 nM, 10 min, HEK293T (Table S2, Fig.5a)): 3.53 | probe concentration for detection of USP30 activity in intact cells (USP30): 30 nM

N#CN1CC[C@@H](NC(=O)c2cc(-c3ccccc3Oc3ccc(N=[N+]=[N-])cc3)n[nH]2)C1 [IMP-2586]
Difference (log2 fold change of enrichment) (ALDH1B1; [2]): 2.25 | probe concentration for detection of USP30 activity in intact cells (USP30): 30 nM | Difference (log2 fold change of enrichment) (USP30; [2]): 4.80

N#CN1CC[C@H](CC(=O)Nc2cc(-c3cccc(Cl)c3)no2)C1 [compound 1, reference compound]
Difference (log2 fold change of enrichment) (ALDH1B1; [3]): -3.81 | Difference (log2 fold change of enrichment) (USP30; [3]): -1.82
